Earlier results on two compounds are cited in US20090162444A1, “RALOXIFENE COMPOSITION” (priority 2007, published 2009).

Structures can show the parent of a compound that is named as a salt.

Test in data set [1]: not given
This is another data set of the same source.

For data set [2] the following is noted: oral administration.

Regarding `O=C(c1ccc(OCCN2CCCCC2)cc1)c1c(-c2ccc(O)cc2)sc2cc(O)ccc12` [Raloxifene hydrochloride, raloxifene hydrochloride], the solubility in water is 627 µg/mL. Besides, the “solubility in gastric and intestinal fluid” value in data set [1] is listed as “very slightly soluble”. Regarding `O=C(c1ccc(OCCN2CCCCC2)cc1)c1c(-c2ccc(O)cc2)sc2cc(O)ccc12` [Raloxifene, (6-hydroxy-2-(4-hydroxy-phenyl)benzo[b]thien-3-yl)-(4-(2-(1-piperidinyl)ethoxy)phenyl)methanone], the absolute bioavailability result in data set [2] was “about 2%”.
